Assay results reported in patent US8377939B2, “Oxadiazole derivatives and their use as metabotropic glutamate receptor potentiators 842” (AstraZeneca AB, priority 2007, dated 2013).
Values after ≈ are worked out from the molar mass of the structure shown.

What was measured:
human mGluR2 = target: T1, human mGluR2 (Homo sapiens, UniProt Q14416); assay: [35S]-GTPγS binding assay, allosteric activator activity with CHO cell membranes; assay type: biochemical; conditions: membranes of CHO cells expressing human mGluR2, 1 μM glutamate; read-out: GTPgS EC50
T1 construct: expressed in transfected cells; host or cells: CHO cells, stably transfected; membranes
Method: A [^35S]-GTPγS binding assay was used to functionally assay mGluR2 receptor activation. The allosteric activator activity of compounds at the human mGluR2 receptor were measured using a [^35S]-GTPγS binding assay with membranes prepared from CHO cells which stably express the human mGluR2. The assay is based upon the principle that agonists bind to G-protein coupled receptors to stimulate GDP-GTP exchange at the G-protein. Since [^35S]-GTPγS is a non-hydrolyzable GTP analog, it can be used to provide an index of GDP-GTP exchange and, thus, receptor activation. The GTPγS binding assay therefore provides a quantitative measure of receptor activation.
Membranes were prepared from CHO cells stably transfected with human mGluR2. Membranes (30 μg protein) were incubated with test compound (3 nM to 300 μM) for 15 minutes at room temperature prior to the addition of 1 μM glutamate, and incubated for 30 min at 30° C. in 500 μl assay buffer (20 mM HEPES, 100 mM NaCl, 10 mM MgCl2), containing 30 μM GDP and 0.1 nM [^35S]-GTPγS (1250 Ci/mmol). Reactions were carried out in triplicate in 2 ml polypropylene 96-well plates. Reactions were terminated by vacuum filtration using a Packard 96-well harvester and Unifilter-96, GF/B filter microplates. The filter plates were washed 4×1.5 ml with ice-cold wash buffer (10 mM sodium phosphate buffer, pH 7.4). The filter plates were dried and 35 μl of scintillation fluid (Microscint 20) was added to each well. The amount of radioactivity bound was determined by counting plates on the Packard TopCount. Data was analyzed using GraphPad Prism, and EC50 and Emax values (relative to the maximum glutamate effect) were calculated using non-linear regression.

[1] = Aqueous solubility in pH 7.4 phosphate buffer; assay type: physicochemical; conditions: thermodynamic from solid, equilibration 24 h at 25° C.
Method: Solubility was determined in pH 7.4 phosphate buffer after equilibration for 24 h at 25° C. and HPLC-UV and LC-MSMS were used for quantitation.

hERG ion channel = hERG ion channel (Homo sapiens, UniProt Q12809); assay: hERG activity (process of Bridgland-Taylor et al.); assay type: cell-based
Method: hERG activity was assessed using the process described by Bridgland-Taylor, M. H., et al, J. Pharm. Tox. Methods 54 (2006) 189-199.

Chain of hERG ion channel (Q12809 whole entry): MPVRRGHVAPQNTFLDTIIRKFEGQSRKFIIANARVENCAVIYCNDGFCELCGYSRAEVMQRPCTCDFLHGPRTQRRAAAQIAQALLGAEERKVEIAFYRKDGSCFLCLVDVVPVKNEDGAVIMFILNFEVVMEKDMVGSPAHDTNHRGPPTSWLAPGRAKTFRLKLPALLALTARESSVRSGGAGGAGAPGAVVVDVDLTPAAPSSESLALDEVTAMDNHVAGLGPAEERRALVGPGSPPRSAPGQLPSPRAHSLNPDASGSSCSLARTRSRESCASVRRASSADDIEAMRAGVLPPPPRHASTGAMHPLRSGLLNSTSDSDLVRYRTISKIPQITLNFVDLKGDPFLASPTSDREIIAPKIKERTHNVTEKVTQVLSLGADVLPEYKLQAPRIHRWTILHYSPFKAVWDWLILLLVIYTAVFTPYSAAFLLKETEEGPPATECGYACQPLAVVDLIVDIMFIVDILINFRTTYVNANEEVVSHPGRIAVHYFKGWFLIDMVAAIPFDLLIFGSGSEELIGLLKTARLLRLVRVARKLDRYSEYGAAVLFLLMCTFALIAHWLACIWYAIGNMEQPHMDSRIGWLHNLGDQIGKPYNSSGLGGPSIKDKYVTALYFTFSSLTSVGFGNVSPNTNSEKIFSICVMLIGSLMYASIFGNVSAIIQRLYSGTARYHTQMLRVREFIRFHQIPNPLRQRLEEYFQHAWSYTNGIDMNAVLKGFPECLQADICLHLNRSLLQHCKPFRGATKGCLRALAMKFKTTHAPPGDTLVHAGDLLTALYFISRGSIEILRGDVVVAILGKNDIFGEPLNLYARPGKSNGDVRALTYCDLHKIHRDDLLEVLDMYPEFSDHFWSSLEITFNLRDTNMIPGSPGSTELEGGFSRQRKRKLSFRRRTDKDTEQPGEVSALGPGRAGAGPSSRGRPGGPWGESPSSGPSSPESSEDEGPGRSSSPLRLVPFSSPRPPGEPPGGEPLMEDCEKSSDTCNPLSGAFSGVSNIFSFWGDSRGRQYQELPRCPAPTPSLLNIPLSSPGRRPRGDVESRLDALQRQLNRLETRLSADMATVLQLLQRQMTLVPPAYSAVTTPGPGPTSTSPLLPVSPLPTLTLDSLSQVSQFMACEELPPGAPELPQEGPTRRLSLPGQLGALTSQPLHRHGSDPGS
T1 sequence (Q14416 19-872): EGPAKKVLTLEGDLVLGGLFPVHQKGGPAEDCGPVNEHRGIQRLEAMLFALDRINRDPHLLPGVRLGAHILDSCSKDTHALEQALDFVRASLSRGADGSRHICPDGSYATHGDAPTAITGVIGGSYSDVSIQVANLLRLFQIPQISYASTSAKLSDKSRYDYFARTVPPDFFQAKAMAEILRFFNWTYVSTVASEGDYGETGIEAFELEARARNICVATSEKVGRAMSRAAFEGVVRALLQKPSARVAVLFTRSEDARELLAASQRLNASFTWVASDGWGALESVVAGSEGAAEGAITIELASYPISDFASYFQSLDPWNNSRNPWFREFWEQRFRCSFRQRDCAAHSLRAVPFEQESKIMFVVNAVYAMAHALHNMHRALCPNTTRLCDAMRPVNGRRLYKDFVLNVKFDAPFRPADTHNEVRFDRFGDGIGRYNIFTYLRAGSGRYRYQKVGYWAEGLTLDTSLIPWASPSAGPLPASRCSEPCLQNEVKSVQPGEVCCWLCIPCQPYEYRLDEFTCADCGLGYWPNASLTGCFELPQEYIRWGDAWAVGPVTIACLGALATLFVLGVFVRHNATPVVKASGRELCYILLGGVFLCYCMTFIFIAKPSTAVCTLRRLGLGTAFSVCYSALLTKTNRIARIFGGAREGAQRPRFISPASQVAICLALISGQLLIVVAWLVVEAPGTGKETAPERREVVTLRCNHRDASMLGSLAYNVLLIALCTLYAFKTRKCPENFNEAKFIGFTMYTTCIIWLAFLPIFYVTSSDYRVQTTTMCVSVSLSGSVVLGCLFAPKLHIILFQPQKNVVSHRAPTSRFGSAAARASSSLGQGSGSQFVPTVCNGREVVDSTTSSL

Row | Structure (SMILES) | EC50 (human mGluR2) [nM] | solubility at 24 h [1] [µM] | hERG (hERG ion channel) [µM]
1 | Cc1cc(-c2nc(CN3CCNC(C)C3)no2)cc2c1C(=O)N(Cc1ccc(Cl)cc1)C2 (centres unmarked) [Example 3, 2-(4-Chloro-benzyl)-7-methyl-5-[3-(3-methyl-piperazin-1-ylmethyl)-[1,2,4]oxadiazol-5-yl]-2,3-dihydro-isoindol-1-one] | 154 | 396 (≈ 179 µg/mL) | 12.0
2 | Cc1cc(-c2nc(CN3CCNCC3)no2)cc2c1C(=O)N(Cc1ccc(OC(F)(F)F)cc1)C2 [Example 1, 7-Methyl-5-(3-piperazin-1-ylmethyl-[1,2,4]oxadiazol-5-yl)-2-(4-trifluoromethoxybenzyl)-2,3-dihydroisoindol-1-one] |  | 44.9 (≈ 21.9 µg/mL) | 11.0
3 | Cc1cc(-c2nc(CN3C[C@@H]4C[C@H]3CN4)no2)cc2c1C(=O)N(Cc1ccc(Cl)cc1)C2 [Example 2, 2-(4-Chloro-benzyl)-5-[3-(2,5-diaza-bicyclo[2.2.1]hept-2-ylmethyl)-[1,2,4]oxadiazol-5-yl]-7-methyl-2,3-dihydro-isoindol-1-one] | 206 | 336 (≈ 151 µg/mL) | 33.0
4 | Cc1cc(-c2nc(CN3CCNC[C@H]3C)no2)cc2c1C(=O)N(Cc1ccc(Cl)cc1)C2 [Example 6, 2-(4-Chloro-benzyl)-7-methyl-5-[3-(2-methyl-piperazin-1-ylmethyl)-[1,2,4]oxadiazol-5-yl]-2,3-dihydro-isoindol-1-one] | 317 | > 500 | 18.7

Further lines, with some results ahead:

Row | EC50 (human mGluR2) [nM] | solubility at 24 h [1] [µM] | Structure (SMILES) | hERG (hERG ion channel) [µM]
5 | 378 | > 500 | Cc1cc(-c2nc(CN3CCNCC3)no2)cc2c1C(=O)N(Cc1ccc(Cl)cc1)C2 [Example 4, 2-(4-Chloro-benzyl)-7-methyl-5-(3-piperazin-1-ylmethyl-[1,2,4]oxadiazol-5-yl)-2,3-dihydro-isoindol-1-one] | 25.0
6 | 352 | 384 (≈ 174 µg/mL) | Cc1cc(-c2nc(CN3CCNC[C@@H]3C)no2)cc2c1C(=O)N(Cc1ccc(Cl)cc1)C2 [Example 5, 2-(4-Chloro-benzyl)-7-methyl-5-[3-(2-methyl-piperazin-1-ylmethyl)-[1,2,4]oxadiazol-5-yl]-2,3-dihydro-isoindol-1-one] | 12.6
